The values below come from publication PMC6497469 (Infection and Drug Resistance, 2019).

For experiment [1], the target named is T1, PA0847 (Pseudomonas aeruginosa, UniProt Q9I594).
T1 sequence (Q9I594 440-735 limits assumed): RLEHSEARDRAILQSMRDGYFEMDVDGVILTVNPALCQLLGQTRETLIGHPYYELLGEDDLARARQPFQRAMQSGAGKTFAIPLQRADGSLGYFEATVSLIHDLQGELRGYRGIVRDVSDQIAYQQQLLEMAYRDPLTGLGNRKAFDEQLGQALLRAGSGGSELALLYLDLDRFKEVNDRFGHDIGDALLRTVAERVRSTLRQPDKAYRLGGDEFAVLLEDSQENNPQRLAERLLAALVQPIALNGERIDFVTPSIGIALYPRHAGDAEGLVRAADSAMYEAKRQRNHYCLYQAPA
Description: titration of GTPγS to purified PAS-GGDEF. The format is binding.

The target of experiment [2] is T1, PA0847. Description: binding of c-di-GMP to purified PAS-GGDEF.
Experiment [3] deals with PA0847 PAS-GGDEF dual domains (Pseudomonas aeruginosa PAO1). As to the kind of experiment: SEC.

The Kd is a measure of binding affinity in units of concentration. A higher Kd goes with weaker binding. Consider `Nc1nc2c(ncn2[C@@H]2O[C@H](COP(=O)(O)OP(=O)(O)OP(O)(O)=S)[C@@H](O)[C@H]2O)c(=O)[nH]1` [GTPγS], for which, in experiment [1], binding was characterised by a dissociation constant (Kd) of 15.3 ± 1.3 µM.

`Nc1nc2c(ncn2[C@@H]2O[C@@H]3CO[P@](=O)(O)O[C@H]4[C@@H](O)[C@H](n5cnc6c(=O)[nH]c(N)nc65)O[C@@H]4CO[P@](=O)(O)O[C@H]3[C@H]2O)c(=O)[nH]1` [c-di-GMP] registered a Kd in experiment [2] of around 59 µM.

As a reminder, the stoichiometry N is a count of units in the complex or per binding partner. In turn, “PA0847 PAS-GGDEF dual domains (domain or fragment)” gave a stoichiometry N in experiment [3] of 2.
